Results reported in patent US12692261B2, “Substituted heterocyclic compounds and therapeutic uses thereof” (Bayer Aktiengesellschaft, priority 2020, dated 2026).
Values joined by “and” are separate entries in the source; they are usually repeats but may differ in a detail not shown here. Equal entries are not always repeated.

Columns and labels:
[1] = biological target: T1, full-length human CSNK1A1 (Homo sapiens, UniProt P48729); assay: CSNK1A1 Assay 2 (ADP-Glo, 1 μM ATP, substrate biotin-Ahx-KRRRAL-pS-VASLPGL); format: biochemical; settings: Table 3, read-out: CSNK1A1 Assay 2 IC50 [mol/l] (median)
T1 construct: N-terminal Glutathion-S-Transferase (GST) and full-length human CSNK1A1; purchased Life Technologies PV4174; host or cells: baculovirus infected insect cells
T1 sequence (P48729 whole entry): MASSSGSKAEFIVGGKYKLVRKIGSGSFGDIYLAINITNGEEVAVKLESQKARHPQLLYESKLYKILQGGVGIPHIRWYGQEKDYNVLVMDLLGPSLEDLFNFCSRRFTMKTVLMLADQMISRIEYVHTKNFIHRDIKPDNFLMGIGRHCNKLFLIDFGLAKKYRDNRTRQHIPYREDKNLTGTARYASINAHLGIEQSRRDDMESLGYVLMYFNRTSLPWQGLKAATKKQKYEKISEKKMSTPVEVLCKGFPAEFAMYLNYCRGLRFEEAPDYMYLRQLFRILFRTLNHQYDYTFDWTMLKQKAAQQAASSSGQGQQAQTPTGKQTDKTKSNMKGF
Procedure, shortened: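 Activity read as ADP generated (ADP-Glo luciferase luminescence, 1 h detection steps at 22 °C). Enzyme was insect-cell-expressed GST–full-length human CSNK1A1, compound-preincubated 15 min before reaction with phosphopeptide substrate and 1 μM ATP in 50 mM HEPES pH 7.5, 10 mM MgCl2.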

[2] = biological target: T1, full-length human CSNK1A1; assay: CSNK1A1 High ATP Assay (ADP-Glo, 1 mM ATP); format: biochemical; settings: Table 3, read-out: CSNK1A1 high ATP assay IC50 [mol/l] (median);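 also: 30 min kinase reaction at 22 °C with 100 µM peptide substrate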
Procedure, shortened: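 Kinase activity taken as ADP generated, quantified by ADP-Glo luminescence after 1 h ATP depletion and 1 h detection at 22 °C. Enzyme is GST–full-length human CSNK1A1 (insect cell-expressed), pre-bound to compound for 15 min, with phosphopeptide substrate and 1 mM ATP.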

Compound | IC50 [1] [µM] | IC50 [2]
O=C(Nc1cc(-c2[nH]c3cccnc3c2-c2cccc(F)n2)ccn1)C(CC(F)F)c1ccc(F)cc1 (racemic) [Example 25, 4,4-difluoro-2-(4-fluorophenyl)-N-{4-[3-(6-fluoropyridin-2-yl)-1H-pyrrolo[3,2-b]pyridin-2-yl]pyridin-2-yl}butanamide] | 0.00277 | 0.0186 µM
Cc1cc(F)nc2c(-c3ccccn3)c(-c3ccnc(NC(=O)C(CC(F)F)c4ccc(F)cc4)c3)[nH]c12 (single isomer, unassigned; (-)) [Example 38, (−)-4,4-difluoro-N-{4-[5-fluoro-7-methyl-3-(pyridin-2-yl)-1H-pyrrolo[3,2-b]pyridin-2-yl]pyridin-2-yl}-2-(4-fluorophenyl)butanamide] | 0.00226 | 0.00226 µM
O=C(Nc1cc(-c2[nH]c3cccnc3c2-c2ccccn2)ccn1)C(CC(F)F)c1ccc(F)cc1 (single isomer, unassigned; (-)) [Example 12, (−)-4,4-difluoro-2-(4-fluorophenyl)-N-{4-[3-(pyridin-2-yl)-1H-pyrrolo[3,2-b]pyridin-2-yl]pyridin-2-yl}butanamide] | 0.00445 | 0.856 µM
O=C(Nc1cc(-c2[nH]c3cc(F)cnc3c2-c2ccccn2)ccn1)C(CC(F)F)c1ccc(F)cc1 (racemic) [Example 16, 4,4-difluoro-2-(4-fluorophenyl)-N-{4-[6-fluoro-3-(pyridin-2-yl)-1H-pyrrolo[3,2-b]pyridin-2-yl]pyridin-2-yl}butanamide] | 0.00339 | 0.0219 µM
O=C(Nc1cc(-c2[nH]c3cc(F)cnc3c2-c2ccccc2)ccn1)C(CC(F)F)c1ccc(F)cc1 (single isomer, unassigned; (-)) [Example 20, (−)-4,4-difluoro-2-(4-fluorophenyl)-N-[4-(6-fluoro-3-phenyl-1H-pyrrolo[3,2-b]pyridin-2-yl)pyridin-2-yl]butanamide] | 0.132 | 10.1 µM
O=C(Nc1cc(-c2[nH]c3c(OCC4CC4)ncnc3c2-c2ccccn2)ccn1)C(CC(F)F)c1ccc(F)cc1 (single isomer, unassigned) [Example 130, (2R or S)—N-{4-[4-(cyclopropylmethoxy)-7-(pyridin-2-yl)-5H-pyrrolo[3,2-d]pyrimidin-6-yl]pyridin-2-yl}-4,4-difluoro-2-(4-fluorophenyl)butanamide] | 0.0437 | 4.96 µM and > 5.71 µM
O=C(Nc1cc(-c2[nH]c3cncnc3c2-c2ccccn2)ccn1)C(CC(F)F)c1ccc(F)cc1 (single isomer, unassigned; (-)) [Example 14, (−)-4,4-difluoro-2-(4-fluorophenyl)-N-{4-[7-(pyridin-2-yl)-5H-pyrrolo[3,2-d]pyrimidin-6-yl]pyridin-2-yl}butanamide] | 0.0164 | 2.14 µM
Cc1cc2[nH]c(-c3ccnc(NC(=O)C(CC(F)F)c4ccc(F)cc4)c3)c(-c3ccccn3)c2nc1F (racemic) [Example 33, (rac)-4,4-difluoro-N-{4-[5-fluoro-6-methyl-3-(pyridin-2-yl)-1H-pyrrolo[3,2-b]pyridin-2-yl]pyridin-2-yl}-2-(4-fluorophenyl)butanamide] | 0.0195 | 0.0195 µM
O=C(Nc1cc(-c2[nH]c3cccnc3c2-c2ccccn2)ccn1)C(CC(F)F)c1ccc(F)cc1 (single isomer, unassigned; (+)) [Example 11, (+)-4,4-difluoro-2-(4-fluorophenyl)-N-{4-[3-(pyridin-2-yl)-1H-pyrrolo[3,2-b]pyridin-2-yl]pyridin-2-yl}butanamide] | 0.0012 | 0.00535 µM
O=C(Nc1cc(-c2[nH]c3c(C4CCCO4)cc(F)nc3c2-c2ccccn2)ccn1)C(CC(F)F)c1ccc(F)cc1 (single isomer, unassigned) [Example 117, (2R or S)-4,4-difluoro-N-(4-{5-fluoro-7-[(2R or S)-oxolan-2-yl]-3-(pyridin-2-yl)-1H-pyrrolo[3,2-b]pyridin-2-yl}pyridin-2-yl)-2-(4-fluorophenyl)butanamide] | 0.00989 | 3.57 µM
O=C(Nc1cc(-c2[nH]c3nccnc3c2-c2ccccn2)ccn1)C(CC(F)(F)F)c1ccc(F)cc1 (single isomer, unassigned) [Example 121, (2R or S)-4,4,4-trifluoro-2-(4-fluorophenyl)-N-{4-[7-(pyridin-2-yl)-5H-pyrrolo[2,3-b]pyrazin-6-yl]pyridin-2-yl}butanamide] | 0.0294 | 0.946 µM
O=C(Nc1cc(-c2[nH]c3cc(F)cnc3c2-c2ccccc2)ccn1)C(CC(F)F)c1ccc(F)cc1 (racemic) [Example 19, 4,4-difluoro-2-(4-fluorophenyl)-N-[4-(6-fluoro-3-phenyl-1H-pyrrolo[3,2-b]pyridin-2-yl)pyridin-2-yl]butanamide] | 0.00922 | 0.602 µM
O=C(Nc1cc(-c2[nH]c3cccnc3c2-c2ccccc2)ccn1)C(CC(F)F)c1ccc(F)cc1 (racemic) [Example 22, 4,4-difluoro-2-(4-fluorophenyl)-N-[4-(3-phenyl-1H-pyrrolo[3,2-b]pyridin-2-yl)pyridin-2-yl]butanamide] | 0.00237 | 0.0904 µM
O=C(Nc1cc(-c2[nH]c3c(OCC(F)(F)F)ncnc3c2-c2ccccn2)ccn1)C(CC(F)F)c1ccc(F)cc1 (single isomer, unassigned) [Example 123, (2R or S)-4,4-difluoro-2-(4-fluorophenyl)-N-{4-[7-(pyridin-2-yl)-4-(2,2,2-trifluoroethoxy)-5H-pyrrolo[3,2-d]pyrimidin-6-yl]pyridin-2-yl}butanamide] | 0.0045 | 0.014 µM
COc1cnc2c(-c3ccccn3)c(-c3ccnc(NC(=O)C(CC(F)F)c4ccc(F)cc4)c3)[nH]c2n1 (stereo not drawn) [Example 101, 4,4-difluoro-2-(4-fluorophenyl)-N-{4-[3-methoxy-7-(pyridin-2-yl)-5H-pyrrolo[2,3-b]pyrazin-6-yl]pyridin-2-yl}butanamide] | 0.00482 | 0.00482 µM
CC(C)(O)c1cc(F)nc2c(-c3ccccn3)c(-c3ccnc(NC(=O)C(CC(F)F)c4ccc(F)cc4)c3)[nH]c12 (single isomer, unassigned) [Example 100, (2R or S)-4,4-difluoro-N-{4-[5-fluoro-7-(2-hydroxypropan-2-yl)-3-(pyridin-2-yl)-1H-pyrrolo[3,2-b]pyridin-2-yl]pyridin-2-yl}-2-(4-fluorophenyl)butanamide] | 0.0336 | 0.0336 µM
O=C(Nc1cc(-c2[nH]c3c(CC4CC4)cc(F)nc3c2-c2ccccn2)ccn1)C(CC(F)F)c1ccc(F)cc1 (single isomer, unassigned) [Example 47, (2R or S)—N-{4-[7-(cyclopropylmethyl)-5-fluoro-3-(pyridin-2-yl)-1H-pyrrolo[3,2-b]pyridin-2-yl]pyridin-2-yl}-4,4-difluoro-2-(4-fluorophenyl)butanamide] | 0.0316 | 0.0316 µM
COc1cnc2c(-c3ccccn3)c(-c3ccnc(NC(=O)C(CC(F)F)c4ccc(F)cc4)c3)[nH]c2n1 (single isomer, unassigned) [Example 103, 4,4-difluoro-2-(4-fluorophenyl)-N-{4-[3-methoxy-7-(pyridin-2-yl)-5H-pyrrolo[2,3-b]pyrazin-6-yl]pyridin-2-yl}butanamide] | 0.00197 | 0.00197 µM
O=C(Nc1cc(-c2[nH]c3c(OC4CC4)cc(F)nc3c2-c2ccccn2)ccn1)C(CC(F)F)c1ccc(F)cc1 (stereo not drawn) [Example 45] | 0.0223 | 0.0223 µM
O=C(Nc1cc(-c2[nH]c3c(Cl)ccnc3c2-c2ccccn2)ccn1)C(CC(F)F)c1ccc(F)cc1 (racemic) [Example 49, (2RS)—N-{4-[7-chloro-3-(pyridin-2-yl)-1H-pyrrolo[3,2-b]pyridin-2-yl]pyridin-2-yl}-4,4-difluoro-2-(4-fluorophenyl)butanamide] | 0.00364 | 0.00364 µM
O=C(Nc1cc(-c2[nH]c3ccc(F)nc3c2-c2cc(F)ccn2)ccn1)C(CC(F)F)c1ccc(F)cc1 (single isomer, unassigned) [Example 97, (2R or S)-4,4-difluoro-N-{4-[5-fluoro-3-(4-fluoropyridin-2-yl)-1H-pyrrolo[3,2-b]pyridin-2-yl]pyridin-2-yl}-2-(4-fluorophenyl)butanamide] | 0.036 | 0.036 µM
Cc1cnc2c(-c3ccccn3)c(-c3ccnc(NC(=O)C(CC(F)F)c4ccc(F)cc4)c3)[nH]c2c1 (single isomer, unassigned) [Example 9, 4,4-difluoro-2-(4-fluorophenyl)-N-{4-[6-methyl-3-(pyridin-2-yl)-1H-pyrrolo[3,2-b]pyridin-2-yl]pyridin-2-yl}butanamide] | 0.0158 | 0.945 µM
COc1ncnc2c(-c3ccccn3)c(-c3ccnc(NC(=O)C(CC(F)F)c4ccc(F)cc4)c3)[nH]c12 (stereo not drawn) [Example 113, 4,4-difluoro-2-(4-fluorophenyl)-N-{4-[4-methoxy-7-(pyridin-2-yl)-5H-pyrrolo[3,2-d]pyrimidin-6-yl]pyridin-2-yl}butanamide] | 0.00374 | 0.157 µM
COc1cc(F)nc2c(-c3ccccn3)c(-c3ccnc(NC(=O)C(CC(F)F)c4ccc(F)cc4)c3)[nH]c12 (racemic) [Example 39, (rac)-4,4-difluoro-N-{4-[5-fluoro-7-methoxy-3-(pyridin-2-yl)-1H-pyrrolo[3,2-b]pyridin-2-yl]pyridin-2-yl}-2-(4-fluorophenyl)butanamide] | 0.019 | 0.019 µM
